Among the test systems are CCRF-CEM; SNB-75; MOLT-4; HCT-15; SF-295; DU-145; COLO 205; NCI-H226; SK-OV-3; SF-539; A498; NCI-H522; IGROV-1; NCI-H23; SR; KM12; SF-268; OVCAR-3; MDA-N; K562.
Experiment in all cases: NCI anticancer screen, dose series, 48 h

SMILES strings stand for the structures.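 Protocol summary: plate cells (96-well), add compound at 5 concentrations, incubate 48 h, interpolate endpoints linearly. Abbreviation: GI50, concentration required for 50% inhibition of growth.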 Active and inactive are the calls of the source. Cut-off read from the data, not from the text of the source: active = GI50 up to about 1.1 µM and inactive = higher.

`CCOC(=O)c1cc2c(OC(C)=O)ccc(OC(C)=O)c2s1`: the GI50 with CCRF-CEM is 2.16 µM (inactive); in the experiment with SNB-75 it was 2.07 µM (inactive); with MOLT-4 it was 2.58 µM (inactive); in the experiment with HCT-15 it was 1.75 µM; in the experiment on SF-295, 6.9 µM (inactive); in the experiment on DU-145, 4.83 µM (inactive). In addition, the GI50 with COLO 205 is 2.17 µM (inactive); in the experiment with NCI-H226 it was 12.9 µM (inactive); in the experiment with SK-OV-3 it was 9.4 µM (inactive); in the experiment with SF-539, 1.73 µM (inactive); with A498, 5.28 µM (inactive); with NCI-H522 it was 0.301 µM (active). The GI50 with IGROV-1 is 1.76 µM (inactive); in the experiment on NCI-H23 it was 1.99 µM (inactive); with SR, 3.27 µM (inactive); in the experiment with KM12 it was 4.52 µM (inactive); with SF-268, 1.79 µM (inactive); with OVCAR-3, 1.61 µM (inactive).

On to `CN1N=C(c2ccncc2)OC1c1ccc(Cl)c(Cl)c1` (stereo not given), for which the GI50 in the experiment with CCRF-CEM was 71.6 µM (inactive); with MOLT-4, 44.5 µM (inactive); in the experiment with HCT-15 it was greater than 100 µM; with SF-295, > 100 µM (inactive); in the experiment with DU-145 it was > 100 µM (inactive); in the experiment on COLO 205, > 100 µM (inactive). Moreover, the GI50 with NCI-H226 was > 100 µM (inactive); in the experiment on SK-OV-3, > 100 µM (inactive); with SF-539, > 100 µM (inactive); in the experiment on A498 it was 82 µM (inactive); in the experiment on NCI-H522, > 100 µM (inactive); in the experiment on IGROV-1 it was > 100 µM (inactive). For the same compound, the GI50 with NCI-H23 is > 100 µM (inactive); with MDA-N, > 100 µM (inactive); with KM12 it was > 100 µM (inactive); with SF-268, > 100 µM (inactive); with OVCAR-3, 72.4 µM (inactive); in the experiment on K562, 61.8 µM (inactive).

Regarding `COC(=O)[C@@H](O)[C@]1(C(=O)OC)C2O[C@@H](OC)[C@@H]1CCCCCC[C@H]2O`, the GI50 is > 100 µM (inactive) in the experiment on CCRF-CEM; > 100 µM (inactive) in the experiment on SNB-75; > 100 µM (inactive) with MOLT-4; greater than 100 µM with HCT-15; > 100 µM (inactive) in the experiment with SF-295; > 100 µM (inactive) in the experiment on COLO 205. Further, the GI50 in the experiment with NCI-H226, in the experiment with SK-OV-3, with SF-539, in the experiment with NCI-H522, in the experiment on IGROV-1 and in the experiment with NCI-H23 was > 100 µM (inactive) in each case. For the same compound, the GI50 with MDA-N, with SR, with KM12, with SF-268, in the experiment with OVCAR-3 and in the experiment on K562 was > 100 µM (inactive) in each case.

For the compound `Cn1c(=O)oc2cc(C(O)CN3CCN(Cc4ccc5c(c4)OCO5)CC3)ccc21` (stereo not given), the GI50 is > 100 µM (inactive) in the experiment on CCRF-CEM; 47 µM (inactive) in the experiment on SNB-75; > 100 µM (inactive) with MOLT-4; greater than 100 µM in the experiment on HCT-15; > 100 µM (inactive) with SF-295; > 100 µM (inactive) in the experiment with DU-145. The GI50 in the experiment with COLO 205, with NCI-H226, in the experiment on SK-OV-3, in the experiment on SF-539, with A498 and in the experiment with NCI-H522 was > 100 µM (inactive) throughout. In addition, the GI50 in the experiment on IGROV-1, in the experiment with NCI-H23, in the experiment with SR, in the experiment with KM12, with SF-268 and in the experiment with OVCAR-3 was > 100 µM (inactive) each time. Moreover, the GI50 with K562 was > 100 µM (inactive).

As to `C(/C=N/N=C1NCCCCN1)=N\N=C1NCCCCN1`, the GI50 in the experiment with CCRF-CEM, with SNB-75, in the experiment on MOLT-4, in the experiment on SF-295, in the experiment on COLO 205 and in the experiment on NCI-H226 was > 100 µM (inactive) throughout. In addition, the GI50 in the experiment with SK-OV-3, in the experiment with SF-539, in the experiment with NCI-H522, in the experiment on IGROV-1, in the experiment on NCI-H23 and in the experiment on MDA-N was > 100 µM (inactive) in each case. Further, the GI50 with SR, with KM12, in the experiment on SF-268, with OVCAR-3 and in the experiment with K562 was > 100 µM (inactive) throughout.

For the compound `Nc1nc(CC2(O)CCCCC2)cc(-c2ccccc2)n1`, the GI50 with CCRF-CEM is 27.5 µM (inactive); in the experiment with SNB-75, > 47.9 µM (inactive); in the experiment with MOLT-4, 16.7 µM (inactive); with HCT-15, greater than 43.9 µM; with SF-295 it was 38.5 µM (inactive); in the experiment with COLO 205, 16.7 µM (inactive). Further, the GI50 with NCI-H226 is > 44.8 µM (inactive); in the experiment on SK-OV-3, > 100 µM (inactive); in the experiment with SF-539, > 74 µM (inactive); in the experiment with A498, 33.5 µM (inactive); in the experiment on NCI-H522, 27.2 µM (inactive); in the experiment on IGROV-1, 43 µM (inactive). For the same compound, the GI50 was > 43 µM (inactive) in the experiment with NCI-H23; 16.5 µM (inactive) in the experiment with SR; 23.1 µM (inactive) in the experiment on KM12; > 64.4 µM (inactive) with SF-268; 25.6 µM (inactive) in the experiment with OVCAR-3; 16.6 µM (inactive) in the experiment with K562.

`O=C1c2ccccc2C(=O)N1CCc1ncc[nH]1`: the GI50 was > 100 µM (inactive) with CCRF-CEM; > 100 µM (inactive) in the experiment on MOLT-4; greater than 100 µM with HCT-15; > 100 µM (inactive) with SF-295; > 100 µM (inactive) with DU-145; > 100 µM (inactive) in the experiment with COLO 205. For the same compound, the GI50 with SF-539, with NCI-H522, in the experiment on IGROV-1, in the experiment on NCI-H23, with MDA-N and in the experiment with SR was > 100 µM (inactive) each time. Also, the GI50 with KM12, with SF-268, in the experiment with OVCAR-3 and in the experiment on K562 was > 100 µM (inactive) in each case.

For the compound `CC(C)C(=O)OCC1CCCN2CCCCC12` (stereo not given), the GI50 is 51.3 µM (inactive) in the experiment on CCRF-CEM; > 100 µM (inactive) in the experiment with SNB-75; 50.8 µM (inactive) with MOLT-4; 53 µM in the experiment with HCT-15; > 100 µM (inactive) in the experiment on SF-295; > 100 µM (inactive) with DU-145. Moreover, the GI50 in the experiment with COLO 205 is 51.1 µM (inactive); in the experiment with NCI-H226 it was > 100 µM (inactive); with SK-OV-3, > 100 µM (inactive); with SF-539, > 100 µM (inactive); with A498, > 100 µM (inactive); with NCI-H23 it was > 100 µM (inactive). Further, the GI50 was > 100 µM (inactive) in the experiment on MDA-N; > 100 µM (inactive) with KM12; > 100 µM (inactive) with SF-268; > 100 µM (inactive) in the experiment on OVCAR-3; 51.3 µM (inactive) in the experiment with K562.

For the compound `c1cc(C[S+]2CCCC2)oc1C[S+]1CCCC1`, the GI50 in the experiment on CCRF-CEM is > 100 µM (inactive); in the experiment with SNB-75, > 100 µM (inactive); with MOLT-4, > 100 µM (inactive); in the experiment with HCT-15, greater than 100 µM; in the experiment with SF-295, > 100 µM (inactive); in the experiment with DU-145, > 100 µM (inactive). The GI50 in the experiment on COLO 205 was > 100 µM (inactive); in the experiment with SK-OV-3, > 100 µM (inactive); in the experiment with SF-539 it was > 100 µM (inactive); with A498, 53.6 µM (inactive); in the experiment with NCI-H522, > 100 µM (inactive); in the experiment with IGROV-1 it was > 100 µM (inactive). Also, the GI50 with NCI-H23, in the experiment on MDA-N, in the experiment on SF-268, in the experiment on OVCAR-3 and in the experiment with K562 was > 100 µM (inactive) in each case.

As for `COC(=O)c1cc(OCc2cc(OCc3ccc(Br)cc3)cc(OCc3ccc(Br)cc3)c2)cc(OCc2cc(OCc3ccc(Br)cc3)cc(OCc3ccc(Br)cc3)c2)c1`, the GI50 in the experiment on SNB-75 is > 100 µM (inactive); in the experiment with MOLT-4 it was > 100 µM (inactive); with HCT-15, greater than 100 µM; in the experiment on SF-295, > 100 µM (inactive); with DU-145, > 100 µM (inactive); with COLO 205, > 100 µM (inactive). In addition, the GI50 in the experiment on NCI-H226 is > 100 µM (inactive); in the experiment on SK-OV-3 it was > 100 µM (inactive); with SF-539, 14.1 µM (inactive); in the experiment with A498 it was > 100 µM (inactive); in the experiment on NCI-H522, > 100 µM (inactive); in the experiment on NCI-H23, > 100 µM (inactive). In addition, the GI50 with MDA-N, in the experiment with KM12, in the experiment on SF-268, with OVCAR-3 and in the experiment on K562 was > 100 µM (inactive) in each case.

`Cc1ccc(C[P+]2(c3ccccc3)CCCCC2)cc1.[O-][Cl+3]([O-])([O-])[O-]`: the GI50 in the experiment with CCRF-CEM was 38 µM (inactive); in the experiment with SNB-75 it was 24.4 µM (inactive); in the experiment with MOLT-4 it was 33 µM (inactive); with HCT-15 it was 51.6 µM; in the experiment with SF-295 it was 44.2 µM (inactive); in the experiment on COLO 205 it was 14 µM (inactive). Also, the GI50 is 48.1 µM (inactive) in the experiment on NCI-H226; 60.8 µM (inactive) with SK-OV-3; 25 µM (inactive) in the experiment on SF-539; > 100 µM (inactive) in the experiment on A498; 16.1 µM (inactive) in the experiment with NCI-H522; 21.3 µM (inactive) in the experiment with IGROV-1. In addition, the GI50 in the experiment with NCI-H23 is 24.7 µM (inactive); in the experiment on SR, 23.1 µM (inactive); in the experiment on KM12 it was 28.5 µM (inactive); with OVCAR-3, 10 µM (inactive); in the experiment with K562, 34.8 µM (inactive).

Turning to `COc1ccc(-n2sc3ncc(-c4ccccc4)cc3c2=O)cc1`, the GI50 in the experiment with CCRF-CEM was 39.4 µM (inactive); in the experiment on SNB-75, 34.5 µM (inactive); in the experiment with HCT-15, 35.6 µM; with SF-295 it was > 100 µM (inactive); in the experiment on DU-145, 61.7 µM (inactive); in the experiment on COLO 205 it was 56.4 µM (inactive). For the same compound, the GI50 in the experiment on NCI-H226 was 82.2 µM (inactive); in the experiment on SK-OV-3 it was > 100 µM (inactive); with A498 it was > 100 µM (inactive); with IGROV-1 it was 22.1 µM (inactive); with NCI-H23 it was 23.3 µM (inactive); in the experiment with KM12, 50 µM (inactive). Further, the GI50 in the experiment with OVCAR-3 was 20.3 µM (inactive).
